Source: ChEMBL document CHEMBL1149030, “Discobahamins A and B, new peptides from the Bahamian deep water marine sponge Discodermia sp” (1994)
Values after ≈ are worked out from the molar mass of the structure shown.

Tests used:
[1] = test system: Candida albicans; experiment: Antifungal activity against mycelial form of Candida albicans; type: functional
[2] = test system: Candida albicans; experiment: Antifungal activity against yeast form of Candida albicans; type: functional

Row | MIC [1] | MIC [2] | Compound
1 | 50 µg/mL (≈ 53.6 µM) | 25 µg/mL (≈ 26.8 µM) | CCC[C@@H](NC(=O)C(O)C(C)CC)C(=O)N[C@H]1CCCNC(=O)[C@H](Cc2c[nH]c3ccc(O)cc23)NC(=O)/C=C/c2coc(n2)[C@H](C)NC(=O)C(=O)[C@H](CC(C)C)NC(=O)[C@@H]2CCCN2C1=O (some centres undefined) [DISCOBAHAMIN A]
2 | 50 µg/mL (≈ 52.8 µM) | 25 µg/mL (≈ 26.4 µM) | CCC(C)C(O)C(=O)N[C@H](CC(C)C)C(=O)N[C@H]1CCCNC(=O)[C@H](Cc2c[nH]c3ccc(O)cc23)NC(=O)/C=C/c2coc(n2)[C@H](C)NC(=O)C(=O)[C@H](CC(C)C)NC(=O)[C@@H]2CCCN2C1=O (some centres undefined) [DISCOBAHAMIN B]
